Values of other authors, collected in paper PMC6021390, “A promiscuous cytochrome P450 aromatic O-demethylase for lignin bioconversion” (Nature Communications, 2018).

Columns and labels:
[1] = test system: LigX; design: method as in ref 37 (a number printed in a supplementary file, which may have a reference list of its own: not looked up in the article's list); settings: 0.2 μM LigXa, 6 μM LigXc, 0.4 μM LigXd, 500 μM NADH, substrate 10-500 μM, FE22 buffer, pH 6.0, 30 °C; cited from earlier work
[2] = test system: PODA; design: method as in ref 36 (a number printed in a supplementary file, which may have a reference list of its own: not looked up in the article's list); settings: 100 μg PODA, 500 μM α-KG, 500 μM iron sulfate, 10 mM sodium ascorbate, cryptopine 0-500 μM, pH 7.4, 30 °C; cited from earlier work
[3] = test system: PODA; test: Cited steady-state O-demethylation of cryptopine (0-500 uM) by 100 ug PODA with 500 uM alpha-ketoglutarate, 500 uM iron sulfate and 10 mM sodium ascorbate in 100 mM Tris, pH 7.4, 30 °C, air.; assay type: biochemical; settings: cited from earlier work

Row | Structure (SMILES) | kcat [1] | kcat [2] | Km [3]
1 | COc1cc(C(=O)O)cc(-c2cc(C(=O)O)cc(OC)c2O)c1O [5,5’-dehydrodivanillate] | 6.1 ± 0.2 s⁻¹ |  | 
2 | COc1cc2c(cc1OC)C(=O)Cc1ccc3c(c1CN(C)CC2)OCO3 [cryptopine] |  | 0.034 s⁻¹ | 27 µM
